Laboratory results taken from patent US7541341B2, “Glucopyranosyloxybenzylbenzene derivatives and medicinal use thereof” (Kissei Pharmaceutical Co., Ltd., priority 2001, dated 2009).

Columns and labels:
[1] = system: SD rat; assay: Acute toxicity test; assay type: in vivo; details: oral 1000 mg/kg; male SD rat, 5 animals in each group; observation for 24 hours
Method: A 100 mg/mL suspension was prepared by adding 0.5% sodium carboxymethylcellulose solution to a test compound. Five week old male SD rat (CLEA JAPAN, INC., 124-128 g, 5 animals in each group) were used as test animals after fasted overnight. The above-mentioned suspension was orally administered at the dose 10 mL/kg (1000 mg/kg) to the test animals, and observation was performed for 24 hours.

[2] = system: SD rats; assay: Assay for the facilitatory effect on urinary glucose excretion; assay type: in vivo; details: fasted male SD rats, sucrose 2.5 g/kg load, 24 hours urine
Method: Assay for the Facilitatory Effect on Urinary Glucose Excretion
As experimental animals, overnight fasted SD rats (Japan SLC. Inc., male, 7-8 weeks of age, 205-272 g) were used. A Test compound was suspended in 0.5% sodium carboxymethylcellulose solution at the concentration of 2 mg/mL. When a homogenous suspension was not obtained in this condition, the test compound was dissolved in ethanol at the concentration of 100 mg/mL of its active form and then 2 mg/mL suspension was obtained by adding this solution to 49 times volumes of 0.5% sodium carboxymethylcellulose solution. Apart of this suspension was diluted with 0.5% sodium carboxymethylcellulose solution and then 0.6 and 0.2 mg/mL suspensions were prepared. After the body weights of rats were measured, the test suspension was orally administered at the dose of 5 mL/kg (1, 3 and 10 mg/kg). For control, just only 0.5% sodium carboxymethylcellulose solution was orally administered at the dose of 5 mL/kg. Immediately after this oral administration, 500 g/L sucrose solution was orally administered at the dose of 5 mL/kg (2.5 g/kg). The oral administration was performed with gastric tube for rat and 2.5 mL syringe. The head count in one group was 3. Collection of urine was performed in metabolic cage after the sucrose administration was finished. The sampling time for collection of urine was 24 hours after the sucrose administration. After collection of urine was finished, the urine volume was recorded and the urinary glucose concentration was measured. The glucose concentration was measured with a kit for laboratory test: Glucose B-Test WAKO (Wako Pure Chemical Industries, Ltd.). The amount of urinary glucose excretion in 24 hours per 200 g of body weight was calculated from urine volume, urinary glucose concentration and body weight.

[3] = biological target: T1, human SGLT2 (Homo sapiens, UniProt P31639, I433V); assay: Assay for inhibitory effect on human SGLT2 activity (uptake of methyl-α-D-glucopyranoside in COS-7 cells transiently expressing human SGLT2); assay type: cell-based; details: methyl-α-D-(U-14C)glucopyranoside uptake, 37° C., 2 hours
T1 construct: expressed in transfected cells; host or cells: COS-7 cells (RIKEN CELL BANK RCB0539), transient, electroporation of KL29
T1 sequence (P31639 1-672 I433V): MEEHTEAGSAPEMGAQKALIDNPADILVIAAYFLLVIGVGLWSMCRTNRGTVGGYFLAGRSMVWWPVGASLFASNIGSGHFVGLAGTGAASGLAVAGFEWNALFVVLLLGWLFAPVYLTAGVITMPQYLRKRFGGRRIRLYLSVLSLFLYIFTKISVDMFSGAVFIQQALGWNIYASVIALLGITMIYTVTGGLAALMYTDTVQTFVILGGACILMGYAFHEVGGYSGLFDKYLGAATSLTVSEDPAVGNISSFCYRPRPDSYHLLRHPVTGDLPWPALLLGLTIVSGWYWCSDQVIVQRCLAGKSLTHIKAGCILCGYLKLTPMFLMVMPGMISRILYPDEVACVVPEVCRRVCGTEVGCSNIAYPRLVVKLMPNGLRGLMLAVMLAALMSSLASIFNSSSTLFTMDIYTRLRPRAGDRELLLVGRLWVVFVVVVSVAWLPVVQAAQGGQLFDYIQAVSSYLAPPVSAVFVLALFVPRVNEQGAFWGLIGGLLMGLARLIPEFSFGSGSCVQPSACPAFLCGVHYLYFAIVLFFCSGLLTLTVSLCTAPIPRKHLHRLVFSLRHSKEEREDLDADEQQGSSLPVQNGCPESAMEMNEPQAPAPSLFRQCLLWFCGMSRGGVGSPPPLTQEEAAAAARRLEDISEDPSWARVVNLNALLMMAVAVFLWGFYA
Method: Assay for Inhibitory Effect on Human SGLT2 Activity
1) Construction of the Plasmid Vector Expressing Human SGLT2
Preparation of the cDNA library for PCR amplification was performed by reverse transcription of a total RNA deprived from human kidney (Ori gene) with oligo dT as the primer, using […] Preamplification System (Gibco-BRL: LIFE TECHNOLOGIES). The DNA fragment coding for human SGLT2 was amplified by the PCR reaction, in which the human kidney cDNA library described above was used as the template and the following oligo nucleotides 0702F and 0712R, presented as SEQ ID NO:1 and SEQ ID NO:2 respectively, were used as the primers. The amplified DNA fragment was ligated into pCR-Blunt (Invitrogen), a vector for cloning, according to standard method of the kit. The Escherichia coli HB101 was transformed according to usual method and then selection of the transformants was performed on the LB agar medium containing 50 μg/mL of kanamycin. […] After plasmid DNA was extracted and purified from this transformant, the base sequence of the DNA fragment inserted at the multi-cloning sites of the vector pcDNA3.1 (−) Myc/His-B was analyzed. […]

Row | Structure (SMILES) | Number of death [1] | Amount of urinary glucose excretion ([2]; oral dose 1 mg/kg) | Amount of urinary glucose excretion ([2]; oral dose 3 mg/kg) | Amount of urinary glucose excretion ([2]; oral dose 10 mg/kg) | IC50 [3]
1 | CCOC(=O)OC[C@H]1O[C@@H](Oc2cc(CO)ccc2Cc2ccc(CC)cc2)[C@H](O)[C@@H](O)[C@@H]1O [Example 1, 2-(4-Ethylbenzyl)-5-hydroxymethylphenyl 6-O-ethoxycarbonyl-β-D-glucopyranoside] | 0/5 | 7.0 mg/24 hours/200 g body weight | 82.1 mg/24 hours/200 g body weight | 195.8 mg/24 hours/200 g body weight | –
2 | CC(=O)OCCc1ccc(Cc2ccccc2O[C@@H]2O[C@H](COC(C)=O)[C@@H](O)[C@H](O)[C@H]2O)cc1 [Example 40, 2-[4-(2-Acetoxyethyl)benzyl]phenyl 6-O-acetyl-β-D-glucopyranoside] | – | 0.0 mg/24 hours/200 g body weight | 4.1 mg/24 hours/200 g body weight | 55.9 mg/24 hours/200 g body weight | –
3 | OCC=Cc1ccc(Cc2ccccc2OC2OC(CO)C(O)C(O)C2O)cc1 [Reference Example 49, (E)-2-[4-(3-Hydroxy-1-prop-1-en-1-yl)benzyl]phenyl β-D-glucopyranoside] | – | – | – | – | 120 nM
